Results on 26 compounds are retold here after US10005767B2, “Compositions and methods for inhibition of the JAK pathway” (Rigel Pharmaceuticals, Inc., priority 2009, dated 2018).

Structures are written as SMILES. Where a name gives a salt, the structure may show the parent alone.

For one assay, the system named is human primary T-cells, IL-2 stimulated proliferation (JAK-1 and JAK-3 dependent; reported as JAK3 activity). Put plainly: Human primary T-cell proliferation stimulated by IL-2 (Example 3). The assay is classed as cell-based. As to conditions: Homo sapiens, T-cell, tested under conditions described in Example 3 (IL-2 stimulated human primary T-cell proliferation); read-out: ability to inhibit JAK3 activity, IC50 range (Table V). From the text: The activity of the compounds described herein can further be characterized by assaying the effect of the 2,4-pyrimidinediamine compounds described herein on the proliferative response of primary human T-cells. In this assay, primary human T-cells derived from peripheral blood and pre-activated through stimulation of the T-cell receptor and CD28, proliferate in culture in response to the cytokine Interleukin-2 (IL-2). This proliferative response is dependent on the activation of JAK1 and JAK3 tyrosine kinases, which phosphorylate and activate the transcription factor Stat-5. The primary human T-cells are incubated with the 2,4-pyrimidinediamine compounds in the presence of IL-2 for 72 hours, and at the assay endpoint intracellular ATP concentrations are measured to assess cell viability. A reduction in cell proliferation compared to control conditions is indicative of inhibition of the JAK kinase pathway.
Primary human T-cells derived from peripheral blood and pre-activated through stimulation of the T-cell receptor and CD28, proliferate in vitro in response to the cytokine Interleukin-2 (IL-2). This proliferative response is dependent on the activation of JAK-1 and JAK-3 tyrosine kinases, which phosphorylate and activate the transcription factor Stat-5.
Human primary T cells were prepared as follows. […] The lymphocytes at the serum: ficoll interface were recovered and washed twice with 5 volumes of PBS. […] The primary T-cells were stimulated for 3-4 days, then transferred to a fresh flask and maintained in RPMI with 10% FBS and 40 U/mL IL-2.
The day prior to the assay set up, primary T-cells were centrifuged and resuspended in fresh RPMI with 10% FBS but without IL-2 and starved overnight. For the assay, the primary T-cells were centrifuged and resuspended Yssel's medium at 2×10^6 cells/mL. 50 μL of cell suspension containing 80 U/mL IL-2 was added to each well of a flat bottom 96 well black plate. For the unstimulated control, IL-2 was omitted from the last column on the plate. […] 50 μL of 2× compound was added per well in duplicate and the cells were allowed to proliferate for 72 hours at 37° C.
Proliferation was measured using CellTiter-Glo® Luminescent Cell Viability Assay (Promega), which determines the number of viable cells in culture based on quantitation of the ATP present, as an indicator of metabolically active cells. The substrate was thawed and allowed to come to ambient temperature. After mixing the Cell Titer-Glo reagent and diluent together, 100 μL was added to each well. The plates were mixed on an orbital shaker for two minutes to induce lysis and incubated at ambient temperature for an additional ten minutes to allow the signal to equilibrate.
The compound designations in Table V are consistent with those of Tables I-IV above.
With `Cc1cnc(Nc2ccc(N3CCC(NC(=O)NC(C)(C)C)C3)nc2)nc1Nc1ccc2oc(=O)[nH]c2c1` (centres unmarked) [II-97, 1-tert-butyl-3-(1-(5-(5-methyl-4-(2-oxo-2,3-dihydrobenzo[d]oxazol-5-ylamino)pyrimidin-2-ylamino)pyridin-2-yl)pyrrolidin-3-yl)urea], the concentration for half-maximal inhibition (IC50) was < 0.5 µM.

Regarding `Cc1cnc(Nc2ccc(N[C@H]3CCCN(Cc4ccccc4)C3)nc2)nc1Nc1ccc2oc(=O)[nH]c2c1` [II-99, (S)-5-(2-(6-(1-benzylpiperidin-3-ylamino)pyridin-3-ylamino)-5-methylpyrimidin-4-ylamino)benzo[d]oxazol-2(3H)-one], the concentration for half-maximal inhibition (IC50) was < 0.5 µM.

Turning to `CC(=O)c1cccc(Nc2ncc(C)c(Nc3ccc4oc(=O)[nH]c4c3)n2)c1` [Compound I-130, 5-[2-(3-Acetyl-phenylamino)-5-methyl-pyrimidin-4-ylamino]-3H-benzooxazol-2-one], the 50% inhibitory concentration (IC50) is < 0.5 µM.

Turning to `Cc1cnc(Nc2c(F)cc(F)cc2F)nc1Nc1ccc2oc(=O)[nH]c2c1` [IV-59, 5-[5-Methyl-2-(2,4,6-trifluoro-phenylamino)-pyrimidin-4-ylamino]-3H-benzooxazol-2-one], the half-maximal inhibitory concentration (IC50) was > 10 µM.

For `Cc1cc(C)cc(Nc2ncc(C)c(Nc3cc(C)c4oc(=O)[nH]c4c3)n2)c1` [Compound I-474, 5-(2-(3,5-dimethylphenylamino)-5-methylpyrimidin-4-ylamino)-7-methylbenzo[d]oxazol-2(3H)-one], the IC50 is < 0.5 µM.

With `Cc1cnc(Nc2ccc3c(c2)CN(CC2CCCC2)C3)nc1Nc1ccc2oc(=O)[nH]c2c1` [III-10, N4-(benzo[d]oxazol-2(3H)-on-5-yl)-N2-(2-cyclopentylmethylisoindolin-5-yl)-5-methylpyrimidine-2,4-diamine], the IC50 was < 0.5 µM.

For the compound `Cc1cnc(Nc2cnc(C3CC4CCC(C3)N4CC3CC3)c(C)c2)nc1Nc1ccc2oc(=O)[nH]c2c1` (centres unmarked) [II-67, 5-(2-(6-(8-(cyclopropylmethyl)-8-aza-bicyclo[3.2.1]octan-3-yl)-5-methylpyridin-3-ylamino)-5-methylpyrimidin-4-ylamino)benzo[d]oxazol-2(3H)-one], the IC50 is < 0.5 µM.

Consider `COc1cc(Nc2ncc(C)c(Nc3ccc4oc(=O)[nH]c4c3)n2)cc(C(C)N2CCC2)c1` (centres unmarked) [Compound I-235, 5-(2-(3-(1-(azetidin-1-yl)ethyl)-5-methoxyphenylamino)-5-methylpyrimidin-4-ylamino)benzo[d]oxazol-2(3H)-one], for which the concentration for half-maximal inhibition (IC50) was < 0.5 µM.

Take `Cc1ccc(Nc2ncc(C)c(Nc3ccc4oc(=O)[nH]c4c3)n2)cc1C` [Compound I-178, 5-[2-(3,4-Dimethyl-phenylamino)-5-methyl-pyrimidin-4-ylamino]-3H-benzooxazol-2-one]: the 50% inhibitory concentration (IC50) is < 0.5 µM.

As to `COc1cc(Nc2ncc(C)c(Nc3ccc4oc(=O)[nH]c4c3)n2)ccc1C(=O)N1CCN(C)CC1` [Compound I-270, 5-(2-(3-methoxy-4-(4-methylpiperazine-1-carbonyl)phenylamino)-5-methylpyrimidin-4-ylamino)benzo[d]oxazol-2(3H)-one], the IC50 was < 0.5 µM.

Turning to `COc1cc(Nc2ncc(C)c(Nc3ccc4oc(=O)[nH]c4c3)n2)ccc1-c1ccncc1` [Compound I-494, 5-(2-(3-methoxy-4-(pyridin-4-yl)phenylamino)-5-methylpyrimidin-4-ylamino)benzo[d]oxazol-2(3H)-one formate salt], the IC50 lay in the range of 0.5 to 5 µM.

As for `CC(=O)Nc1ccc(Nc2ncc(C)c(Nc3ccc4oc(=O)[nH]c4c3)n2)cc1C(F)(F)F` [Compound I-177, N-{4-[5-Methyl-4-(2-oxo-2,3-dihydro-benzooxazol-5-ylamino)-pyrimidin-2-ylamino]-2-trifluoromethyl-phenyl}-acetamide], the half-maximal inhibitory concentration (IC50) was < 0.5 µM.

Take `Cc1cnc(Nc2ccc3c(c2)CCCN(C)C3=O)nc1Nc1ccc2oc(=O)[nH]c2c1` [IV-21, 5-(5-methyl-2-(2-methyl-1-oxo-2,3,4,5-tetrahydro-1H-benzo[c]azepin-7-ylamino)pyrimidin-4-ylamino)benzo[d]oxazol-2(3H)-one]: the IC50 was < 0.5 µM.

The assay is the same for the next values; noted with them: tested under conditions described in Example 3 (IL-2 stimulated human primary T-cell proliferation); read-out: ability to inhibit JAK3 activity, IC50 range (Table V).
On to `Cc1cnc(Nc2ccc3c(c2)CN(CC2CC2)C3)nc1Nc1ccc2oc(=O)[nH]c2c1` [III-7, N4-(benzo[d]oxazol-2(3H)-on-5-yl)-N2-(2-cyclopropylmethylylisoindolin-5-yl)-5-methylpyrimidine-2,4-diamine], for which the half-inhibitory concentration (IC50) is < 0.5 µM.

As to `Cc1cnc(Nc2ccc(S(N)(=O)=O)cc2)nc1Nc1ccc2[nH]c(=O)oc2c1` [Compound I-99, N2-((4-aminosulfonyl)phenyl)-N4-(2-oxo-2,3-dihydrobenzo[d]oxazol-6-yl)-5-methylpyrimidine-2,4-diamine], the IC50 was < 0.5 µM.

As for `COC(=O)c1ccc(Nc2ncc(C)c(Nc3ccc4oc(=O)[nH]c4c3)n2)cc1OC` [Compound I-336, N2-(3-methoxy-4-methoxycarbonyl)phenyl-5-methyl-N4-(2-oxo-2,3-dihydro-1,3-benzoxazol-5-yl)-2,4-pyrimidinediamine], the IC50 is < 0.5 µM.

As to `Cc1cnc(Nc2cccc(S(C)(=O)=O)c2)nc1Nc1ccc2c(c1)n(C)c(=O)n2C` [Compound I-36, N4-(1,3-dimethylbenzimidazolin-2-on-5-yl)-N2-((3-methylsulfonyl)phenyl)-5-methylpyrimidine-2,4-diamine], the 50% inhibitory concentration (IC50) was < 0.5 µM.

On to `Cc1cnc(Nc2cccc(OCC(=O)NC3CC3)c2)nc1Nc1ccc2oc(=O)[nH]c2c1` [Compound I-315, N2-[3-(cyclopropylaminocarbonylmethoxy)]phenyl-5-methyl-N4-(2-oxo-2,3-dihydro-1,3-benzoxazol-5-yl)-2,4-pyrimidinediamine], for which the half-maximal inhibitory concentration (IC50) is < 0.5 µM.

Take `Cc1ccc(Nc2ncc(F)c(Nc3ccc4oc(=O)n(C)c4c3)n2)cc1NS(C)(=O)=O` [Compound I-85, N2-((3-methylsulfonylamino-4-methyl)phenyl)-N4-(3-methyl-2-oxo-2,3-dihydrobenzo[d]oxazol-5-yl)-5-fluoropyrimidine-2,4-diamine]: the IC50 lay within 0.5 to 5 µM.

`Cc1ccc(Nc2ncc(C)c(Nc3ccc4oc(=O)[nH]c4c3)n2)cc1OC(C)(C)C#N` [Compound I-397, N2-[3-(1-cyano-1-methyl)ethoxy-4-methyl]phenyl-5-methyl-N4-(2-oxo-2,3-dihydro-1,3-benzoxazol-5-yl)-2,4-pyrimidinediamine]: the IC50 was < 0.5 µM.

As for `Cc1cnc(Nc2cc(C(C)(C)C)cc(C(C)(C)C)c2)nc1Nc1ccc2oc(=O)[nH]c2c1` [Compound I-355, N2-(3,5-di-tert-butyl)phenyl-5-methyl-N4-(2-oxo-2,3-dihydro-1,3-benzoxazol-5-yl)-2,4-pyrimidinediamine], the concentration for half-maximal inhibition (IC50) was in the range of 0.5 to 5 µM.

In the case of `Cc1cnc(Nc2cnc(N3CCN(C)CC3)c(C)c2)nc1Nc1ccc2[nH]c(=O)[nH]c2c1` [II-27, N4-(benzimidazolin-2-on-5-yl)-N2-[3-methyl-2-(4-methylpiperazin-1-yl)pyridin-5-yl]-5-methylpyrimidine-2,4-diamine], the IC50 was < 0.5 µM.

`Cc1cnc(Nc2ccc(NS(C)(=O)=O)cc2)nc1Nc1ccc2oc(=O)[nH]c2c1` [Compound I-52]: the IC50 was < 0.5 µM.

Consider `Cc1cnc(Nc2cc(C)c(C)c(C)c2)nc1Nc1cc(Cl)c2oc(=O)n(COP(=O)(OC(C)(C)C)OC(C)(C)C)c2c1` [Compound I-524, N4-{3-[bis(1,1-dimethylethoxy)]phosphinyloxymethyl-7-chloro-2-oxo-2,3-dihydro-1,3-benzoxazol-5-yl}-N2-(3,4,5-trimethyl)phenyl-5-methyl-2,4-pyrimidinediamine], for which the IC50 is > 10 µM.

`CCNC(=O)N1CCN(c2ccc(Nc3ncc(C)c(Nc4ccc5oc(=O)[nH]c5c4)n3)cc2)CC1` [Compound I-333, N2-[4-(4-ethylaminocarbonyl)piperazino]phenyl-5-methyl-N4-(2-oxo-2,3-dihydro-1,3-benzoxazol-5-yl)-2,4-pyrimidinediamine]: the half-maximal inhibitory concentration (IC50) was < 0.5 µM.

Regarding `Cc1cnc(Nc2cc(OC(C)C)cc(C(F)(F)F)c2)nc1Nc1ccc2oc(=O)[nH]c2c1` [Compound I-372, N2-(3-isopropoxy-5-trifluoromethyl)phenyl-5-methyl-N4-(2-oxo-2,3-dihydro-1,3-benzoxazol-5-yl)-2,4-pyrimidinediamine], the 50% inhibitory concentration (IC50) was < 0.5 µM.
